In US8415339B2, “Bactericidal anti-MRSA active pharmaceutical composition containing carbapenems” (priority 2007, dated 2013):
Where “and” joins values, the source holds several entries; their conditions need not be identical. Equal entries are not always repeated. Each block holds one compound with its values, some of them ahead of it.

Tests used:
MRSA 7268/02 [1] = test: Agar diffusion (plate/disk) test, inhibition zone; assay type: cell-based, Staph. aureus; conditions: 20 hrs at 37° C.; for zone of inhibition at 10 µg/disc: Staphylococcus aureus, MRSA, 20 h, read-out: Diameter of inhibition zone
Description: (§1) Inhibition zone diameters were determined on Difco Nutrient Agar (10 ml) in sterile dishes (8.5 cm) using ca. 10^6-10^7 colony forming units. 0.2 ml of a bacterial suspension (overnight culture in Difco Nutrient Broth) was mixed at 52° C. with the sterile liquid agar. It solidified at room temperature. Sterile filter disks (6 mm) were placed on the agar surface. Appropriate volumes of a 0.2% aqueous solutions of antibiotics were transferred to the disks by a precision syringe. Alternatively, commercial impregnated disks (Oxoid) were used.
(§2) The inhibition zone diameter was measured after 20 hrs at 37° C. For determination of bactericidal activity, incubation at 37° C. was continued for additional 40 hrs. A clear inhibition zone after additional incubation indicated bactericidity (B).

Staph. Innsbruck [2] = test: Agar diffusion (plate/disk) test, inhibition zone; assay type: cell-based, Staph. aureus; conditions: 20 hrs at 37° C.; for zone of inhibition at 10 µg/disc: Staphylococcus aureus, 20 h, read-out: Diameter of inhibition zone
Description: as §1, §2

MRSA 7268/02 [3] = test: Minimal inhibitory concentration, agar dilution; assay type: cell-based, Staph. aureus; conditions: Difco Nutrient Agar, 20 hrs at 37° C., combinations as a + b; for MIC: Staphylococcus aureus, MRSA
Description: (§3) Minimal inhibitory concentrations were determined using Difco Nutrient Agar. Appropriate volumes of 0.1% aqueous solutions of antibiotics were added into sterile dishes (8.5 cm) in twofold dilutions and mixed with 10 ml of sterile liquid agar of 50° C. The solid agar was inoculated with 3 μl of an 0.5 McFarland bacterial solution in Difco Nutrient Broth, corresponding to approx. 10^5 colony forming units. Bacterial growth was recorded after 20 hrs of incubation at 37° C.

Staph. Innsbruck [4] = test: Minimal inhibitory concentration, agar dilution; assay type: cell-based, Staph. aureus; conditions: Difco Nutrient Agar, 20 hrs at 37° C., combinations as a + b; for MIC: Staphylococcus aureus
Description: as §3

MRSA 7268/02 [5] = test: Time dependent counting of colony forming units (cfu); assay type: cell-based, Staph. aureus
MRSA München 12797 = test: Mouse septicaemia test; assay type: in vivo; conditions: s. c., at 1 hr and 4 hr after i.v. infection, observed 10 days
Description: In vivo activity was determined by a mouse septicaemia test using immunocompetent animals of 30 g weight (6 animals per group). Infection was performed with MRSA München 12797 at a concentration of approx. 2×10^9 cfu/mouse by the i.v. route (lethal dose). Therapy was performed at daily doses from 5+5 to 75+75 mg/kg by s. c. route (equivalent amounts at time 1 hr and 4 hr after infection).

[6] = single antibiotic 30 μg per disk
[7] = carbapenem alone 10 μg per disk

- MIC (MRSA 7268/02 [3]): 32 µg/mL
- MIC (Staph. Innsbruck [4]): 64 µg/mL
SMILES: CC1(C)S[C@@H]2[C@H](NC(=O)[C@H](N)c3ccc(O)cc3)C(=O)N2[C@H]1C(=O)O [Amoxicillin]
- Diameter of inhibition zone (MRSA 7268/02 [1]; [6]): 0 mm
- Diameter of inhibition zone (Staph. Innsbruck [2]; [6]): 10 mm

SMILES: CC1(C)S[C@@H]2[C@H](NC(=O)[C@H](N)c3ccccc3)C(=O)N2[C@H]1C(=O)O [Ampicillin]
- Diameter of inhibition zone (MRSA 7268/02 [1]; [6]): 12 mm
- Diameter of inhibition zone (Staph. Innsbruck [2]; [6]): 12 mm

SMILES: CC1(C)S[C@@H]2[C@H](NC(=O)C(C(=O)O)c3ccccc3)C(=O)N2[C@H]1C(=O)O (stereo partly shown) [Carbenicillin]
- Diameter of inhibition zone (MRSA 7268/02 [1]; [6]): 0 mm

SMILES: N[C@@H](C(=O)N[C@@H]1C(=O)N2C(C(=O)O)=C(Cl)CS[C@H]12)c1ccccc1 [Cefaclor]
- Diameter of inhibition zone (MRSA 7268/02 [1]; [6]): 11 mm

SMILES: Cc1nnc(SCC2=C(C(=O)O)N3C(=O)[C@@H](NC(=O)Cn4cnnn4)[C@H]3SC2)s1 [Cefazolin]
- Diameter of inhibition zone (MRSA 7268/02 [1]; [6]): 0 mm
- Diameter of inhibition zone (Staph. Innsbruck [2]; [6]): 0 mm

SMILES: C=CC1=C(C(=O)O)N2C(=O)[C@@H](NC(=O)/C(=N\O)c3csc(N)n3)[C@H]2SC1 [Cefdinir]
- Diameter of inhibition zone (MRSA 7268/02 [1]; [6]): 0 mm

SMILES: C=CC1=C(C(=O)O)N2C(=O)[C@@H](NC(=O)/C(=N\OCC(=O)O)c3csc(N)n3)[C@H]2SC1 [Cefixim]
- Diameter of inhibition zone (Staph. Innsbruck [2]; [6]): 0 mm

SMILES: CCN1CCN(C(=O)N[C@@H](C(=O)N[C@@H]2C(=O)N3C(C(=O)O)=C(CSc4nnnn4C)CS[C@H]23)c2ccc(O)cc2)C(=O)C1=O [Cefoperazone]
- Diameter of inhibition zone (MRSA 7268/02 [1]; [6]): 9 mm

SMILES: CO/N=C(\C(=O)N[C@@H]1C(=O)N2C(C(=O)O)=C(COC(C)=O)CS[C@H]12)c1csc(N)n1 [Cefotaxime]
- Diameter of inhibition zone (MRSA 7268/02 [1]; [6]): 0 mm
- Diameter of inhibition zone (Staph. Innsbruck [2]; [6]): 0 mm

SMILES: CN(C)CCn1nnnc1SCC1=C(C(=O)O)N2C(=O)[C@@H](NC(=O)Cc3csc(N)n3)[C@H]2SC1 [Cefotiam]
- Diameter of inhibition zone (Staph. Innsbruck [2]; [6]): 0 mm

- MIC (Staph. Innsbruck [4]): 32 µg/mL
SMILES: CO[C@@]1(NC(=O)Cc2cccs2)C(=O)N2C(C(=O)O)=C(COC(N)=O)CS[C@@H]21 [Cefoxitin]
- Diameter of inhibition zone (MRSA 7268/02 [1]; [6]): 0 mm
- Diameter of inhibition zone (Staph. Innsbruck [2]; [6]): 11 mm

SMILES: NC(=O)c1cc[n+](CC2=C(C(=O)[O-])N3C(=O)[C@@H](NC(=O)[C@@H](c4ccccc4)S(=O)(=O)O)[C@H]3SC2)cc1 [Cefsudolin]
- Diameter of inhibition zone (MRSA 7268/02 [1]; [6]): 0 mm
- Diameter of inhibition zone (Staph. Innsbruck [2]; [6]): 0 mm

SMILES: CO/N=C(\C(=O)N[C@@H]1C(=O)N2C(C(=O)O)=C(CSc3nc(=O)c(=O)[nH]n3C)CS[C@H]12)c1csc(N)n1 [Ceftriaxon]
- Diameter of inhibition zone (MRSA 7268/02 [1]; [6]): 0 mm
- Diameter of inhibition zone (Staph. Innsbruck [2]; [6]): 0 mm

SMILES: CO/N=C(\C(=O)N[C@@H]1C(=O)N2C(C(=O)O)=C(COC(N)=O)CS[C@H]12)c1ccco1 [Cefuroxim]
- Diameter of inhibition zone (MRSA 7268/02 [1]; [6]): 0 mm

SMILES: CC(=O)OCC1=C(C(=O)O)N2C(=O)[C@@H](NC(=O)Cc3cccs3)[C@H]2SC1 [Cephalothin]
- Diameter of inhibition zone (MRSA 7268/02 [1]; [6]): 0 mm

SMILES: Cc1onc(-c2ccccc2Cl)c1C(=O)N[C@@H]1C(=O)N2[C@@H]1SC(C)(C)[C@@H]2C(=O)O [Cloxacillin]
- Diameter of inhibition zone (MRSA 7268/02 [1]; [6]): 0 mm
- Diameter of inhibition zone (Staph. Innsbruck [2]; [6]): 0 mm

SMILES: Cc1onc(-c2c(Cl)cccc2Cl)c1C(=O)N[C@@H]1C(=O)N2[C@@H]1SC(C)(C)[C@@H]2C(=O)O [Dicloxacillin]
- Diameter of inhibition zone (MRSA 7268/02 [1]; [6]): 0 mm
- Diameter of inhibition zone (Staph. Innsbruck [2]; [6]): 0 mm

SMILES: CC1(C)S[C@@H]2[C@H](NC(=O)[C@H](N)C3=CCC=CC3)C(=O)N2[C@H]1C(=O)O [Epicillin]
- Diameter of inhibition zone (MRSA 7268/02 [1]; [6]): 14 mm and 12 mm
- Diameter of inhibition zone (Staph. Innsbruck [2]; [6]): 10 mm and 14 mm and 12 mm
- Minimal Inhibitory concentration (MRSA 7268/02 [3]): 32 µg/mL
- Minimal Inhibitory concentration (Staph. Innsbruck [4]): 32 µg/mL
- Reduction of cfu's, substance used alone (MRSA 7268/02 [5]): Neither epicillin, nor linezolide showed any significant reduction of cfu's

SMILES: C[C@@H](O)[C@H]1C(=O)N2C(C(=O)O)=C(S[C@@H]3CN[C@H](C(=O)Nc4cccc(C(=O)O)c4)C3)[C@H](C)[C@H]12 [Ertapenem]
- zone of inhibition at 10 µg/disc (MRSA 7268/02 [1]; [7]): 0 mm
- zone of inhibition at 10 µg/disc (Staph. Innsbruck [2]; [7]): 0 mm

SMILES: COCSC1=C(C(=O)[O-])N2C(=O)[C@H]([C@@H](C)O)[C@H]2[C@H]1C.[K+] [GH 478, Potassium (1R,5S,6S)-6-[(R)-1-hydroxyethyl]-2-methoxymethylthio-1-methylcarbapen-2-em-3-carboxylate]
- Diameter of inhibition zone (Staph. Innsbruck [2]; [7]): 0 mm

SMILES: CC(=O)NCSC1=C(C(=O)[O-])N2C(=O)[C@H]([C@@H](C)O)[C@H]2[C@H]1C.[K+] [GH 519, Potassium (1R,5S,6S)-2-[(N-acetylamino)methylthio]-6-[(R)-1-hydroxyethyl]-1-methyl-carbapenen-2-em-3-carboxylate]
- Diameter of inhibition zone (MRSA 7268/02 [1]; [7]): 0 mm
- Diameter of inhibition zone (Staph. Innsbruck [2]; [7]): 0 mm

SMILES: C[C@@H](O)[C@H]1C(=O)N2C(C(=O)O)=C(SCOCCN)[C@H](C)[C@H]12 [GH 570, (1R,5S,6S)-2-[(2-Aminoethyl)oxy]metlhylthio-6-[(R)-1-hydroxyethyl]-1-methylcarbapen-2-em-3-carboxylic acid]
- Diameter of inhibition zone (MRSA 7268/02 [1]; [7]): 0 mm
- Diameter of inhibition zone (Staph. Innsbruck [2]; [7]): 0 mm

SMILES: C[C@@H](O)[C@H]1C(=O)N2C(C(=O)O)=C(SCCN=CN)C[C@H]12 [Imipenem]
- zone of inhibition at 10 µg/disc (MRSA 7268/02 [1]; [7]): 8 mm
- zone of inhibition at 10 µg/disc (Staph. Innsbruck [2]; [7]): 8 mm

SMILES: C[C@@H](O)[C@H]1C(=O)N2C(C(=O)O)=C(S[C@@H]3CN[C@H](C(=O)N(C)C)C3)[C@H](C)[C@H]12 [Meropenem]
- zone of inhibition at 10 µg/disc (MRSA 7268/02 [1]; [7]): 13 mm
- zone of inhibition at 10 µg/disc (Staph. Innsbruck [2]; [7]): 14 mm
- MIC (MRSA 7268/02 [3]): 16 µg/mL
- MIC (Staph. Innsbruck [4]): 32 µg/mL
- ED90 (MRSA München 12797): > 75+75 mg/kg
- Bactericidal effect compared with epicillin/meropenem 2+2 μg/ml (MRSA 7268/02 [5]; 4 μg/ml alone): less bactericidal than the epicillin/meropenem composition at 2+2 μg/ml

SMILES: COc1cccc(OC)c1C(=O)N[C@@H]1C(=O)N2[C@@H]1SC(C)(C)[C@@H]2C(=O)O [Methicillin]
- Diameter of inhibition zone (Staph. Innsbruck [2]; [6]): 0 mm

SMILES: CO[C@@]1(NC(=O)C(C(=O)O)c2ccc(O)cc2)C(=O)N2C(C(=O)O)=C(CSc3nnnn3C)CO[C@@H]21 (stereo partly shown) [Moxalactam]
- Diameter of inhibition zone (Staph. Innsbruck [2]; [6]): 8 mm

SMILES: Cc1onc(-c2ccccc2)c1C(=O)N[C@@H]1C(=O)N2[C@@H]1SC(C)(C)[C@@H]2C(=O)O [Oxacillin]
- Diameter of inhibition zone (MRSA 7268/02 [1]; [6]): 0 mm
- Diameter of inhibition zone (Staph. Innsbruck [2]; [6]): 0 mm

SMILES: CCN1CCN(C(=O)N[C@@H](C(=O)N[C@@H]2C(=O)N3[C@@H]2SC(C)(C)[C@@H]3C(=O)O)c2ccccc2)C(=O)C1=O [Piperacillin]
- Diameter of inhibition zone (MRSA 7268/02 [1]; [6]): 0 mm
- Diameter of inhibition zone (Staph. Innsbruck [2]; [6]): 0 mm

SMILES: CN[C@H](CC(C)C)C(=O)N[C@H]1C(=O)N[C@@H](CC(N)=O)C(=O)N[C@H]2C(=O)N[C@H]3C(=O)N[C@H](C(=O)N[C@H](C(=O)O)c4cc(O)cc(O)c4-c4cc3ccc4O)[C@H](O)c3ccc(c(Cl)c3)Oc3cc2cc(c3O[C@@H]2O[C@H](CO)[C@@H](O)[C@H](O)[C@H]2O[C@H]2C[C@](C)(N)[C@H](O)[C@H](C)O2)Oc2ccc(cc2Cl)[C@H]1O [Vancomycin]
- Diameter of inhibition zone (MRSA 7268/02 [1]; [6]): 19 mm
- Diameter of inhibition zone (Staph. Innsbruck [2]; [6]): 20 mm

SMILES: CC(=O)NC[C@H]1CN(c2ccc(N3CCOCC3)c(F)c2)C(=O)O1 [linezolide]
- Reduction of cfu's, substance used alone (MRSA 7268/02 [5]): Neither epicillin, nor linezolide showed any significant reduction of cfu's
